# Data published in ChEMBL document CHEMBL5365529, “Construction and Evaluation of Novel Dual-function Antifungal Inhibitors and Covalent Organic Framework Carriers Based on the Infection Microenvironment” (J Med Chem, 2023).
# Calls of active or inactive are those of the source. The calls are words filed in the database; no cut-off is given here.
# Legend:
# Candida albicans [1] = assay: Antifungal activity against FLC-resistant Candida albicans CaR assessed as fungal growth inhibition incubated for 72 hrs by CLSI based susceptibility test; assay type: functional
# [2] = target: T1, Lanosterol 14-alpha demethylase (Candida albicans (strain SC5314 / ATCC MYA-2876) (Yeast), UniProt P10613); assay: Inhibition of CYP51 in Candida albicans SC5314 assessed as unknown sterol level at 4 ug/ml incubated for 16 hrs by GC-MS analysis (reference value: 5.35 %); parameters: scale not given: the % may be the effect or the level left; settings: at 4 µg/mL
# [3] = target: T2, Programmed cell death 1 ligand 1 (Homo sapiens, UniProt Q9NZQ7); assay: Inhibition of human PD-L1 incubated for 15 mins by ELISA method
# [4] = target: T1, Lanosterol 14-alpha demethylase; assay: Inhibition of CYP51 in Candida albicans SC5314 assessed as ergosterol level at 4 ug/ml incubated for 16 hrs by GC-MS analysis (reference value: 92.07 %); parameters: scale not given: the % may be the effect or the level left; settings: at 4 µg/mL
# Aspergillus fumigatus = assay: Antifungal activity against Aspergillus fumigatus KM8001 assessed as fungal growth inhibition incubated for 72 hrs by CLSI based susceptibility test; assay type: functional
# Cryptococcus neoformans = assay: Antifungal activity against Cryptococcus neoformans ZKCC 2209 assessed as fungal growth inhibition incubated for 72 hrs by CLSI based susceptibility test; assay type: functional
# Candida tropicalis = assay: Antifungal activity against Candida tropicalis ATCC 1369 assessed as fungal growth inhibition incubated for 72 hrs by CLSI based susceptibility test; assay type: functional
# Candida albicans [5] = assay: Antifungal activity against Candida albicans SC5314 assessed as fungal growth inhibition incubated for 72 hrs by CLSI based susceptibility test; assay type: functional
# Candida albicans [6] = assay: Induction of apoptosis in Candida albicans SC5314 assessed as necrotic cells incubated for 48 hrs by annexin V-FITC/PI staining based flow cytometry (reference value: 2.12 %); assay type: functional
# [7] = target: T1, Lanosterol 14-alpha demethylase; assay: Inhibition of CYP51 in Candida albicans SC5314 using lanosterol as substrate incubated for 60 mins by HPLC analysis
# Candida albicans [8] = assay: Antifungal activity against FLC-resistant Candida albicans 904 assessed as fungal growth inhibition incubated for 72 hrs by CLSI based susceptibility test; assay type: functional
# Candida albicans [9] = assay: Induction of mitochondrial membrane depolarization in Candida albicans SC5314 by JC-1 staining based flow cytometry (reference value: 12.51 %); assay type: functional
# Candida albicans [10] = assay: Antifungal activity against FLC-resistant Candida albicans 901 assessed as fungal growth inhibition incubated for 72 hrs by CLSI based susceptibility test; assay type: functional
# Candida albicans [11] = assay: Induction of apoptosis in Candida albicans SC5314 assessed as apoptotic cells incubated for 48 hrs by annexin V-FITC/PI staining based flow cytometry (reference value: 2.12 %); assay type: functional
# Nakaseomyces glabratus = assay: Antifungal activity against Candida glabrata assessed as fungal growth inhibition incubated for 72 hrs by CLSI based susceptibility test; assay type: functional
# [12] = target: T2, Programmed cell death 1 ligand 1; assay: Binding affinity to PD-L1 (unknown origin) immobilized on carboxy chip assessed as dissociation constant by SPR analysis
# [13] = target: T1, Lanosterol 14-alpha demethylase; assay: Inhibition of CYP51 in Candida albicans SC5314 assessed as lanosterol level at 4 ug/ml incubated for 16 hrs by GC-MS analysis relative to control; parameters: scale not given: the % may be the effect or the level left; settings: at 4 µg/mL
# Candida albicans [14] = assay: Antifungal activity against FLC-resistant Candida albicans 17# assessed as fungal growth inhibition incubated for 72 hrs by CLSI based susceptibility test; assay type: functional
# Candida albicans [15] = assay: Antifungal activity against FLC-resistant Candida albicans 632 assessed as fungal growth inhibition incubated for 72 hrs by CLSI based susceptibility test; assay type: functional
# Candida albicans [16] = assay: Induction of apoptosis in Candida albicans SC5314 assessed as increase in ROS level at 1 uM/ml incubated for 48 hrs by fluorescence microscopy; assay type: functional, organism-based
# [17] = Toxicity in BALB/c mouse infected with Candida albicans 901 assessed as pathological change in liver at 0.5 ug/g administered 6 times measured after 4 days in presence of Ketoconazole by H and E staining based analysis; assay type: tissue-based; settings: in vivo, 96 h, dose 0.5 µg/g, time 4 day
# [18] = Toxicity in BALB/c mouse infected with Candida albicans 901 assessed as pathological change in spleen at 0.5 ug/g administered 6 times measured after 4 days in presence of Ketoconazole by H and E staining based analysis; assay type: tissue-based; settings: in vivo, 96 h, dose 0.5 µg/g, time 4 day
# Candida albicans [19] = assay: Antifungal activity against Candida albicans 901 infected in BALB/c mouse assessed as repair of tissue damage at 0.5 ug/g administered 6 times measured after 4 days in presence of Ketoconazole by GMS staining based analysis; assay type: functional, organism-based; settings: dose 0.5 µg/g, time 4.0 day
# Candida albicans [20] = assay: Antifungal activity against Candida albicans 901 infected in BALB/c mouse assessed as repair of tissue damage at 0.5 ug/g administered 6 times measured after 4 days in presence of Ketoconazole by Masson staining based analysis; assay type: functional, organism-based; settings: dose 0.5 µg/g, time 4.0 day
# Candida albicans [21] = assay: Induction of immunity in BALB/c mouse infected with Candida albicans 901 assessed as decrease in PD-L1 level at 0.5 ug/g administered 6 times measured after 4 days in presence of Ketoconazole by Western blot analysis; assay type: functional, organism-based; settings: dose 0.5 µg/g, time 4.0 day
# Candida albicans [22] = assay: Induction of immunity in BALB/c mouse infected with Candida albicans 901 assessed as decrease in PD-L1 level at 0.5 ug/g administered 6 times measured after 4 days in presence of Ketoconazole by IHC analysis; assay type: functional, organism-based; settings: dose 0.5 µg/g, time 4.0 day
# Candida albicans [23] = assay: Antifungal activity against Candida albicans 901 infected in BALB/c mouse assessed as inhibition of fungal proliferation at 0.5 ug/g administered 6 times measured after 4 days in presence of Ketoconazole by Masson staining based analysis; assay type: functional, organism-based; settings: dose 0.5 µg/g, time 4.0 day
# [24] = Toxicity in BALB/c mouse infected with Candida albicans 901 assessed as pathological change in lung at 0.5 ug/g administered 6 times measured after 4 days in presence of Ketoconazole by H and E staining based analysis; assay type: tissue-based; settings: in vivo, 96 h, dose 0.5 µg/g, time 4 day
# Candida albicans [25] = assay: Antifungal activity against Candida albicans 901 infected in BALB/c mouse assessed as inhibition of fungal proliferation at 0.5 ug/g administered 6 times measured after 4 days in presence of Ketoconazole by GMS staining based analysis; assay type: functional, organism-based; settings: dose 0.5 µg/g, time 4.0 day
# [26] = Toxicity in BALB/c mouse infected with Candida albicans 901 assessed as pathological change in kidney at 0.5 ug/g administered 6 times measured after 4 days in presence of Ketoconazole by H and E staining based analysis; assay type: tissue-based; settings: in vivo, 96 h, dose 0.5 µg/g, time 4 day
# Candida albicans [27] = assay: Antifungal activity against Candida albicans 901 infected in BALB/c mouse assessed as decrease in collagen fiber content at 0.5 ug/g administered 6 times measured after 4 days in presence of Ketoconazole by Masson staining based analysis; assay type: functional, organism-based; settings: dose 0.5 µg/g, time 4.0 day
# Candida albicans [28] = assay: Antifungal activity against Candida albicans 901 infected in BALB/c mouse assessed as decrease in collagen fiber content at 0.5 ug/g administered 6 times measured after 4 days in presence of Ketoconazole by GMS staining based analysis; assay type: functional, organism-based; settings: dose 0.5 µg/g, time 4.0 day
# [29] = Toxicity in BALB/c mouse infected with Candida albicans 901 assessed as pathological change in heart at 0.5 ug/g administered 6 times measured after 4 days in presence of Ketoconazole by H and E staining based analysis; assay type: tissue-based; settings: in vivo, 96 h, dose 0.5 µg/g, time 4 day
# T2 sequence (Q9NZQ7 whole entry): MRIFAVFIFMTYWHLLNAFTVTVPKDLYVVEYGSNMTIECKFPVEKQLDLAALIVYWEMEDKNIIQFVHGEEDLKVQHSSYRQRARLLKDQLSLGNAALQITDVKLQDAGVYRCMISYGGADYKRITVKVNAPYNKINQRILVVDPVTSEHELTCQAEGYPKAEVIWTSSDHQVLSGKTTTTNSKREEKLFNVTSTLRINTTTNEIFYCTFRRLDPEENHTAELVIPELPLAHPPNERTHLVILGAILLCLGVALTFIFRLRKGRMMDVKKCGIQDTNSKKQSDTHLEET
# T1 sequence (P10613 whole entry): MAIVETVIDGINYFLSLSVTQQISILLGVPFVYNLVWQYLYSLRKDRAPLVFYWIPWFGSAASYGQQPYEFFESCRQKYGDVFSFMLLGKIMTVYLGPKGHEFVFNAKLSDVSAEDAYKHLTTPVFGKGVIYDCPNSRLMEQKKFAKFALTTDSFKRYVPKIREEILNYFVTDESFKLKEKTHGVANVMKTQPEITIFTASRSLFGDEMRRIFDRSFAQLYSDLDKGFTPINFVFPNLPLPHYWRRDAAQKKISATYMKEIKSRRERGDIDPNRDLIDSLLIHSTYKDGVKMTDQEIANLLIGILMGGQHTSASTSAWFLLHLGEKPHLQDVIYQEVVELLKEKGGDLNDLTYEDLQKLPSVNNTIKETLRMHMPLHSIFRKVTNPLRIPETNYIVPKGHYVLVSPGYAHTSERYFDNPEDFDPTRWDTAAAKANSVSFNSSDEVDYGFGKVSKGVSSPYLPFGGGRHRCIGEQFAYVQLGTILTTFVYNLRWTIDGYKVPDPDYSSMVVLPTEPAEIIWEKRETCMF
Structure (SMILES),MIC50 (Aspergillus fumigatus),MIC50 (Cryptococcus neoformans),MIC50 (Candida tropicalis),MIC50 (Candida albicans [5]),MIC50 (Nakaseomyces glabratus),further results
Cc1c(CN2CCCC(C(=O)N[C@H](Cn3cncn3)C(=O)OC(C)C)C2)cccc1-c1ccccc1 (some centres undefined),2 µg/mL,1 µg/mL,0.25 µg/mL,0.125 µg/mL,0.5 µg/mL,MIC50 (Candida albicans [1]): 4 µg/mL; Activity [2]: 4.19%; IC50 [3]: 35 nM; Activity [4]: 14.71%; Activity (Candida albicans [6]): 25.91%; IC50 [7]: 320 nM; MIC50 (Candida albicans [8]): 4 µg/mL; Activity (Candida albicans [9]): 34.74%; MIC50 (Candida albicans [10]): ≥ 8 µg/mL; Activity (Candida albicans [11]): 25.91%; Kd [12]: 15 nM; Activity [13]: 11.25%; MIC50 (Candida albicans [14]): 4 µg/mL; MIC50 (Candida albicans [15]): 2 µg/mL; Activity (Candida albicans [16]): Active
CCOC(=O)[C@@H](Cn1cncn1)NC(=O)C1CCCN(Cc2cccc(-c3ccccc3)c2C)C1 (some centres undefined),> 8 µg/mL,2 µg/mL,0.5 µg/mL,0.25 µg/mL,0.5 µg/mL,–
O=C(O)[C@@H](CO)NCc1cc(Cl)c(OCc2cccc(-c3ccccc3)c2Br)cc1OCc1cccnc1,–,–,–,–,–,IC50 [3]: 22 nM; Activity [17]: Non-Toxic; Activity [18]: Non-Toxic; Activity (Candida albicans [19]): Active; Activity (Candida albicans [20]): Active; Activity (Candida albicans [21]): Active; Activity (Candida albicans [22]): Active; inhibition (Candida albicans [23]): Active; Activity [24]: Non-Toxic; inhibition (Candida albicans [25]): Active; Activity [26]: Non-Toxic; Activity (Candida albicans [27]): Active; Activity (Candida albicans [28]): Active; Activity [29]: Non-Toxic
COC(=O)[C@@H](Cn1ccnc1)NC(=O)C1CCCN(C(=O)c2cccc(-c3ccccc3)c2)C1 (some centres undefined),> 8 µg/mL,4 µg/mL,2 µg/mL,1 µg/mL,0.5 µg/mL,–
COC(=O)[C@@H](Cn1ccnc1)NCc1cccc(OCc2cccc(-c3ccccc3)c2C)c1,> 8 µg/mL,1 µg/mL,2 µg/mL,0.5 µg/mL,1 µg/mL,–
COC(=O)[C@@H](Cn1cncn1)NC(=O)C1CCCN(C(=O)c2cccc(-c3ccccc3)c2)C1 (some centres undefined),8 µg/mL,1 µg/mL,1 µg/mL,0.5 µg/mL,0.5 µg/mL,–
CCOC(=O)[C@@H](Cn1cncn1)NCc1cccc(OCc2cccc(-c3ccccc3)c2C)c1,4 µg/mL,2 µg/mL,1 µg/mL,1 µg/mL,0.25 µg/mL,–
CCOC(=O)[C@@H](Cn1ccnc1)NC(=O)C1CCCN(C(=O)c2cccc(-c3ccccc3)c2)C1 (some centres undefined),4 µg/mL,1 µg/mL,0.5 µg/mL,0.5 µg/mL,1 µg/mL,–
CCOC(=O)[C@@H](Cn1ccnc1)NC(=O)C1CCCN(Cc2cccc(-c3ccccc3)c2C)C1 (some centres undefined),> 8 µg/mL,1 µg/mL,0.25 µg/mL,0.25 µg/mL,0.5 µg/mL,–
COC(=O)[C@@H](Cn1ccnc1)NC(=O)C1CCCN(Cc2cccc(-c3ccccc3)c2C)C1 (some centres undefined),4 µg/mL,0.5 µg/mL,1 µg/mL,0.5 µg/mL,2 µg/mL,–
CCOC(=O)[C@@H](Cn1ccnc1)NCc1cccc(OCc2cccc(-c3ccccc3)c2C)c1,4 µg/mL,1 µg/mL,0.5 µg/mL,0.5 µg/mL,1 µg/mL,–
Cc1c(COc2cccc(CN[C@H](Cn3ccnc3)C(=O)OC(C)C)c2)cccc1-c1ccccc1,4 µg/mL,2 µg/mL,0.5 µg/mL,0.25 µg/mL,0.5 µg/mL,–
COC(=O)[C@@H](Cn1cncn1)NC(=O)C1CCCN(Cc2cccc(-c3ccccc3)c2C)C1 (some centres undefined),4 µg/mL,2 µg/mL,1 µg/mL,0.5 µg/mL,2 µg/mL,–
CC(C)OC(=O)[C@@H](Cn1cncn1)NC(=O)C1CCCN(C(=O)c2cccc(-c3ccccc3)c2)C1 (some centres undefined),4 µg/mL,2 µg/mL,1 µg/mL,0.5 µg/mL,1 µg/mL,–
CC(C)OC(=O)[C@@H](Cn1ccnc1)NC(=O)C1CCCN(C(=O)c2cccc(-c3ccccc3)c2)C1 (some centres undefined),2 µg/mL,0.5 µg/mL,0.5 µg/mL,0.25 µg/mL,0.25 µg/mL,MIC50 (Candida albicans [1]): 2 µg/mL; Activity [2]: 4.96%; IC50 [3]: 63 nM; Activity [4]: 16.08%; Activity (Candida albicans [6]): 25.91%; IC50 [7]: 410 nM; MIC50 (Candida albicans [8]): ≥ 8 µg/mL; Activity (Candida albicans [9]): 34.74%; MIC50 (Candida albicans [10]): 4 µg/mL; Activity (Candida albicans [11]): 25.91%; Kd [12]: 15 nM; Activity [13]: 12.71%; MIC50 (Candida albicans [14]): ≥ 8 µg/mL; MIC50 (Candida albicans [15]): 4 µg/mL; Activity (Candida albicans [16]): Active
Cc1c(CN2CCCC(C(=O)N[C@H](Cn3ccnc3)C(=O)OC(C)C)C2)cccc1-c1ccccc1 (some centres undefined),> 8 µg/mL,1 µg/mL,1 µg/mL,0.5 µg/mL,0.5 µg/mL,–
OC(Cn1cncn1)(Cn1cncn1)c1ccc(F)cc1F [FLUCONAZOLE],> 8 µg/mL,1 µg/mL,0.5 µg/mL,0.5 µg/mL,0.25 µg/mL,MIC50 (Candida albicans [1]): ≥ 8 µg/mL; MIC50 (Candida albicans [8]): ≥ 8 µg/mL; MIC50 (Candida albicans [10]): ≥ 8 µg/mL; MIC50 (Candida albicans [14]): ≥ 8 µg/mL; MIC50 (Candida albicans [15]): ≥ 8 µg/mL
Cc1c(COc2cccc(CN[C@H](Cn3cncn3)C(=O)OC(C)C)c2)cccc1-c1ccccc1,8 µg/mL,2 µg/mL,2 µg/mL,2 µg/mL,0.25 µg/mL,–
CCOC(=O)[C@@H](Cn1cncn1)NC(=O)C1CCCN(C(=O)c2cccc(-c3ccccc3)c2)C1 (some centres undefined),> 8 µg/mL,2 µg/mL,0.5 µg/mL,0.25 µg/mL,0.5 µg/mL,–
